From patent publication US20180133148A1, “Degradable Microparticles for Protein and Small Molecule Delivery” (Georgia Tech Research Corporation, priority 2016, published 2018)

Tests used:
[1] = FTY720 loading and release from degradable heparin-based MPs (plate reader); format: physicochemical
Method: FTY720 was loaded onto degradable heparin-based MPs. The amount of FTY720 that was loaded onto the MPs was then assayed via plate reader. In three separate groups, additional amounts of FTY720, i.e. 5 μg, 10 μg and 20 μg, were then added. […] For each of the three separate groups, the extent of FTY720 release was assayed via plate reader each day over 7 days. […] The black line refers to the batch with 20 μg added. The dark blue line refers to the batch with 10 μg added. The light blue line refers to the batch with 5 μg added.

plasmin = test: Plasmin inhibition assay (TSG-6 anti-plasmin activity); format: biochemical
Method: To assess TSG-6 bioactivity after release from MPs, the plasmin inhibition assay protocol was followed with day 1 TSG-6 release supernatant (11 ng/mL) and compared to a soluble TSG-6 control at the same concentration (11 ng/mL); n=3-5.
Without wishing to be bound by theory, it may be that the sulfate groups removed, the N sulfate group for Hep^−N and the N and […] for Hep−, are necessary for complete heparin binding to TSG-6 and the subsequent enhancement of TSG-6 bioactivity.

articular cartilage = test: Safranin-O histology of tibiae, medial meniscal transection model; format: in vivo, Sprague-Dawley rats; settings: 3 weeks following MMT injury
Excerpt: Medial meniscal transection (MMT) injury was induced using a similar method to previously established protocols. Willett N. J. et al., Arthritis Res Ther. 2014; 16(1):R47. Male Sprague-Dawley rats (250-300 g initial weight and 8-10 weeks old) were used in accordance with protocols approved by the Georgia Institute of Technology Institutional Animal Care and Use Committee. Prior to surgery animals were anesthetized by 5% isoflurane (Isothesia), followed by 2-3% isoflurane during surgery and were administered sustained release buprenorphine as an analgesic. Next, a small incision was made through the skin on the medial aspect of the left femoral-tibial joint. The medial collateral ligament was exposed by blunt dissection and transected to visualize the joint space and medial meniscus. The meniscus was then transected completely at its narrowest point. The skin was sutured with 4.0 silk sutures (Ethicon) and then closed using wound clips.
For TSG-6 loaded MP treatment, MPs were loaded as described above but 3.6 mg MPs were resuspended in a total volume of 50 μL sterile 0.1 wt % BSA PBS solution and subsequently loaded into sterile syringes. 1, 7, and 15 days following MMT injury, MPs were delivered via intra-articular injection through the infrapatellar ligament and into the stifle joint of the left leg. For soluble TSG-6 controls, 16.7 μg TSG-6 was dissolved in a total volume of 50 μL sterile 0.1 wt % BSA PBS solution, loaded into sterile syringes, and delivered using the same method as TSG-6 loaded MPs. Overall, in vivo experimental groups included TSG-6 loaded MPs (18 μg TSG-6 loaded onto 10.8 mg MPs delivered over 3 time points; n=3), soluble TSG-6 (50 μg TSG-6 delivered over 3 time points; n=3) or injury only (no TSG-6 or MPs; n=4). Contralateral tibiae served as uninjured controls.
Following μCT, tibiae were decalcified in Cal-Ex II (Fisher) for 10 days, then processed for histology sectioning as described previously. Tellier L. E. et al. Localized SDF-1 Delivery Increases Pro-Healing Bone Marrow-Derived Cells in the Supraspinatus Muscle Following Severe Rotator Cuff Injury. […]

[2] = system: articular cartilage of the medial tibial plateau; test: EPIC-μCT of tibial articular cartilage, medial meniscal transection model; format: in vivo, Sprague-Dawley rats
[3] = TSG-6 with soluble heparin derivative, or TSG-6 alone
[4] = 21 days following MMT injury, compared to uninjured control

Loading efficiency of FTY720 ([1]; of the originally added amount of FTY720, 5, 10, 20 μg added)	Total amount of FTY720 released from MPs ([1]; over 7 days, dependent on amount originally added)	Compound	Plasmin activity compared to plasmin control (plasmin; [3])	Effect on TSG-6 anti-plasmin activity compared to TSG-6 alone (plasmin; soluble heparin derivatives, in words)	Improvement of cartilage degeneration following injury (articular cartilage)	Proteoglycan loss (Safranin-O stained sections) (articular cartilage)	Safranin-O staining of GAG within cartilage (articular cartilage)	Cartilage fibrillation (contrast-enhanced μCT imaging) ([2]; 3 weeks following MMT injury)	Cartilage attenuation [2, 4]	Cartilage thickness [2, 4]	Cartilage volume [2, 4]	Plasmin activity compared to plasmin control (plasmin; day 1 release supernatant or soluble control, 11 ng/mL TSG-6)
35-80%	0.5 to 5 µg	CCCCCCCCc1ccc(CCC(N)(CO)CO)cc1 [FTY720]										
		fully desulfated heparin [Hep−, reference compound]	69.6±1.2%	no significant effect								
		soluble TSG-6: human TNF-α-stimulated gene-6, positively charged 35 kDa protein (R&D Systems)	74.6±0.2%		unable to improve cartilage degeneration	proteoglycan loss is observed	Less intense safranin-O staining was observed	cartilage fibrillation is present	1.6±0.2 ×	1.5±0.2 ×	1.9±0.5 ×	96.4±3.1%
